Biological target: T1, hURAT1 (Homo sapiens, UniProt Q96S37)
T1 sequence (Q96S37 1-553): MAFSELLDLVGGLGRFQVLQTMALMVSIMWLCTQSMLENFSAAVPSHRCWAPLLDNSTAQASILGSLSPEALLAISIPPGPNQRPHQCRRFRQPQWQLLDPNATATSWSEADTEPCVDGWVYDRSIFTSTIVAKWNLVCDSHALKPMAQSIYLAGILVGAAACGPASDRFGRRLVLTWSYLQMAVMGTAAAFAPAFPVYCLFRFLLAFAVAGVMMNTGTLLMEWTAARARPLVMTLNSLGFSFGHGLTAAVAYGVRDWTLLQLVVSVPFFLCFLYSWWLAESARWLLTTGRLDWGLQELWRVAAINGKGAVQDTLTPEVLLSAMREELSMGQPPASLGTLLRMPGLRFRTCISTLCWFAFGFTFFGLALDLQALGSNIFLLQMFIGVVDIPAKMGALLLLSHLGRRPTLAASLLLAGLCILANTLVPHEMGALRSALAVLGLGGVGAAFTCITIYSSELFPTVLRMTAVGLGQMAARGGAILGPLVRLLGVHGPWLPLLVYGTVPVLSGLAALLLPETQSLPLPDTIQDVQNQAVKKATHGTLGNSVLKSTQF
Experiment: Inhibition assay of uric acid transport in HEK293-hURAT1 transfection cell line (14C-uric acid uptake)
Format: cell-based
Details: for inhibition at 0.5 µM: compound concentration 500 nM, HEK293-hURAT1 stable cells, 14C-uric acid, mean of three tests ±SD, read-out: Inhibition rate of uric acid transport, ±SD (%); for inhibitory effects of uric acid transport in HEK293-hURAT1 transfection cell line, in words: in comparison with control drug Zurampic at 500 nM
Method: Inhibition Assay of Uric Acid Transport for Compounds in HEK293-hURAT1 Transfection Cell Line
1. Construction of a HEK293 stable cell line with high expression of hURAT1:
The plasmid pCMV6-hURAT1 was transfected into HEK293 cells, then the stable strain was obtained by the G418 (final concentration of 500 μg/mL) resistance screening, which is the high expression of hURAT1 transporter membrane protein. It can be used for in vitro inhibition assay of uric acid transporter hURAT1 (Weaver Y M, Ehresman D J, Butenhoff J L, et al. Roles of rat renal organic anion transporters in transporting perfluorinated carboxylates with different chain lengths. Toxicological Sciences, 2009, 113(2):305-314).
2. Coating 24-well plate: to a coated 24-well plate was added 200 μl of 0.1 mg/mL poly-lysine per well and the plate was left overnight. Poly-lysine was removed from wells. The wells were cleaned thoroughly with steriled water and dried for use.
3. To the above coated 24-well plate was added HEK293-hURAT1 stable cells (2×10^5 cells per well). The cells were cultured at 37° C. under 5% CO2 for 3 days.
4. Preparation of HBSS buffer: the following reagents were weighed according to the final concentration of 125 mM sodium gluconate, 4.8 mM potassium gluconate, 1.3 mM calcium gluconate, 1.2 mM KH2PO4, 1.2 mM MgSO4, 5.6 mM glucose and 25 mM HEPES. Deionized water was added to reach the corresponding volume, and the solution was fully mixed to give HBSS (pH value: 7.4). The buffer was stored at −20° C. in a refrigerator.
5. At the day of experiment, the HBSS buffer was taken out of the refrigerator and warmed to 37° C. in a water bath. Taken out the 24-well plate with HEK293-hURAT1 stable cells, removed the culture medium and washed cells with HBSS, then add 160 μL of HBSS and 20 μL test compound per well. The final concentration of tested compound per well is 500 nM. The blank control well contains only 180 μL of HBSS without tested compound. The plate was placed at room temperature for 10 minutes.
6. To each well was added 20 μL of 50 μM ^14C-uric acid. The 24-well plate was placed at room temperature for 20 minutes.
7. The solution in each well was removed and the cells in each well were washed with the pre-cooled HBSS buffer. To each well was added 0.2 M NaOH to dissolve the cells. The solution containing cell fragments was collected and the appropriate amount of scintillation liquid was added. The radioisotope intensity of the ^14C-Uric acid (CPM value) was then detected by using PerkinElmer MicroBeta Trilux 1450 liquid scintillation analyzer.
8. In HEK293 transfected cell lines, the formula for calculating the inhabitation rate of uric acid transport for compounds was shown as below (Table 1), the CPM value of the tested compounds was represented by CPM(tested compound) and the CPM value of the blank control was represented by CPM(blank control). All tests were repeated three times, and the results were averaged and the standard deviation (SD) was calculated: Inhibition rate(%)(500 nM compound concentration)=(CPM(blank control)−CPM(test compound))/CPM(blank control)×100%

SMILES	inhibition at 0.5 µM [%]	inhibitory effects of uric acid transport in HEK293-hURAT1 transfection cell line, in words
CCc1nc2n(c1C(=O)c1cc(Br)c(O)c(Br)c1)CCCC2 [Compound 5, (3,5-dibromo-4-hydroxyphenyl)(2-ethyl-5,6,7,8-tetrahydroimidazo[1,2-a]pyridine-3-yl)methanone]	53.4 ± 4.54	very good inhibitory effects
[2H]C1c2nc(CC)c(C(=O)c3cc(Br)c(O)c(Br)c3)n2C([2H])C([2H])([2H])C1[2H] (stereo not shown) [Compound 10, (3,5-dibromo-4-hydroxyphenyl)(5,6,6,7,8-pentadeuterio-2-ethyl-5,6,7,8-tetrahydroimidazo[1,2-a]pyridin-3-yl)methanone]	47.5 ± 3.12	very good inhibitory effects
CCc1nc2n(c1C(=O)c1cc(Br)c(O)c(C#N)c1)CCCC2 [Compound 17, 3-bromo-5-(2-ethyl-5,6,7,8-tetrahydroimidazo[1,2-a]pyridine-3-carbonyl)-2-hydroxybenzonitrile]	47.46 ± 0.14	very good inhibitory effects
CCc1nc2n(c1C(=O)c1cc(Br)c(O)c(Br)c1)CCC(O)C2 (stereo not shown) [Compound 23, (3,5-dibromo-4-hydroxyphenyl)(2-ethyl-7-hydroxy-5,6,7,8-tetrahydroimidazo[1,2-a]pyridine-3-yl)methanone]	47.5 ± 1.65	very good inhibitory effects
CCc1nc2n(c1C(=O)c1cc(Br)c(O)c(Br)c1)CCC(OC)C2 (stereo not shown) [Compound 25, (3,5-dibromo-4-hydroxyphenyl)-(2-ethyl-7-methoxy-5,6,7,8-tetrahydroimidazo[1,2-a]pyridin-3-yl)methanone]	47.6 ± 4.12	very good inhibitory effects
CCc1nn2c(c1C(=O)c1cc(Br)c(O)c(Br)c1)CCCC2 [Compound 32]	43.4 ± 2.4	
CCn1nc2c(c1C(=O)c1cc(Br)c(O)c(Br)c1)CCCC2 [Compound 41, (3,5-dibromo-4-hydroxyphenyl)(2-ethyl-4,5,6,7-tetrahydro-2H-indazol-3-yl)methanone]	46.2 ± 6.18	very good inhibitory effects
CCc1nc2n(c1C(O)c1cc(Br)c(O)c(Br)c1)CCCC2 (stereo not shown) [Compound 42, 2,6-dibromo-4-[(2-ethyl-5,6,7,8-tetrahydroimidazo[1,2-a]-pyridin-3-yl)hydroxymethyl]phenol]	47.6 ± 3.08	very good inhibitory effects
CCc1nc2n(c1C(=O)c1cc(Br)c(O)c(Br)c1)CC(C)CC2 (stereo not shown) [Compound 43, (3,5-dibromo-4-hydroxyphenyl)(2-ethyl-6-methyl-5,6,7,8-tetrahydroimidazo[1,2-a]pyridin-3-yl)methanone]	53.2 ± 9.36	very good inhibitory effects
CCc1nc2n(c1C(=O)c1cc(C)c(O)c(Br)c1)CCCC2 [Compound 48, (3-bromo-4-hydroxy-5-methylphenyl)(2-ethyl-5,6,7,8-tetrahydroimidazo[1,2-a]pyridin-3-yl)methanone]	46.1 ± 4.91	very good inhibitory effects
CCn1nc2c(c1C(=O)c1cc(Br)c(O)c(Br)c1)COCC2 [Compound 58]	38.6 ± 6.3	
CCc1nc2n(c1C(O)c1cc(Br)c(O)c(C#N)c1)CCCC2 (stereo not shown) [Compound 63, 3-bromo-5-((2-ethyl-5,6,7,8-tetrahydroimidazo[1,2-a]pyridin-3-yl)hydroxymethyl)-2-hydroxyl benzonitrile]	42.3 ± 2.6	
O=C(O)CSc1nnc(Br)n1-c1ccc(C2CC2)c2ccccc12 [Zurampic, Lesinurad, reference compound]	27.6 ± 2.89	

— US11597725B2, “URAT1 inhibitor for promoting uric acid excretion” (JIANGSU ATOM BIOSCIENCE AND PHARMACEUTICAL CO., LTD., priority 2017, dated 2023)
